Measurements: PubChem BioAssay AID1963975 (Molecular Pharmacology Branch, DTP, NCI, 2024)
Blank lines part the entries; values can stand above or below the compound they belong to.

Test system: 624824-186-R-J2-PDC multicell spheroids, viability
Test: Anticancer human tumor 624824-186-R-J2-PDC patient-derived colon adenocarcinoma cell line growth inhibition [PI3K]
Conditions: for IC50: curve of first compound; for viability, T/C: stronger effect = lower value
Summary of the method: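 We assembled tumor spheroids that included a stromal compartment of HUVEC and MSCs, then exposed them to targeted agents alone and together with PI3K pathway inhibitors. Concentration series descended by half-log from clinically achievable Cmax levels. Viability served as the endpoint.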

[1] = second compound 0.0316 µM, first compound 0.0316 µM
[2] = second compound 0.0316 µM, first compound 0.1 µM
[3] = second compound 0.1 µM, first compound 0.0316 µM
[4] = second compound 0.1 µM, first compound 0.1 µM
[5] = second compound 0.316 µM, first compound 0.0316 µM
[6] = second compound 0.316 µM, first compound 0.1 µM
[7] = second compound 1 µM, first compound 0.0316 µM
[8] = second compound 1 µM, first compound 0.1 µM
[9] = second compound 3.16 µM, first compound 0.0316 µM
[10] = second compound 3.16 µM, first compound 0.1 µM
[11] = second compound 10 µM, first compound 0.0316 µM
[12] = second compound 10 µM, first compound 0.1 µM
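Note: spheroids exposed to agents for 7 days before viability read.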
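Throughout, for viability, T/C: 100% = DMSO vehicle treated spheroids.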

IC50 (second compound 0.0316 µM): > 100 nM
IC50 (second compound 0.1 µM): > 100 nM
IC50 (second compound 0.316 µM): > 100 nM
IC50 (second compound 1 µM): > 100 nM
IC50 (second compound 3.16 µM): > 100 nM
IC50 (second compound 10 µM): > 100 nM
Compound: CC(=O)c1c(C)c2cnc(Nc3ccc(N4CCNCC4)cn3)nc2n(C2CCCC2)c1=O + Cc1nc(NC(=O)N2CCCC2C(N)=O)sc1-c1ccnc(C(C)(C)C(F)(F)F)c1
viability, T/C (second compound 0.0316 µM, first compound 0.000316 µM): 81.6%
viability, T/C (second compound 0.0316 µM, first compound 0.001 µM): 72.8%
viability, T/C (second compound 0.0316 µM, first compound 0.00316 µM): 83.6%
viability, T/C (second compound 0.0316 µM, first compound 0.01 µM): 79.2%
viability, T/C [1]: 74.1%
viability, T/C [2]: 82.8%
viability, T/C (second compound 0.1 µM, first compound 0.000316 µM): 98.2%
viability, T/C (second compound 0.1 µM, first compound 0.001 µM): 105%
viability, T/C (second compound 0.1 µM, first compound 0.00316 µM): 93.6%
viability, T/C (second compound 0.1 µM, first compound 0.01 µM): 75.9%
viability, T/C [3]: 91.4%
viability, T/C [4]: 76.2%
viability, T/C (second compound 0.316 µM, first compound 0.000316 µM): 89%
viability, T/C (second compound 0.316 µM, first compound 0.001 µM): 80.6%
viability, T/C (second compound 0.316 µM, first compound 0.00316 µM): 85%
viability, T/C (second compound 0.316 µM, first compound 0.01 µM): 97.4%
viability, T/C [5]: 88.3%
viability, T/C [6]: 88.7%
viability, T/C (second compound 1 µM, first compound 0.000316 µM): 96.3%
viability, T/C (second compound 1 µM, first compound 0.001 µM): 78.9%
viability, T/C (second compound 1 µM, first compound 0.00316 µM): 88.5%
viability, T/C (second compound 1 µM, first compound 0.01 µM): 87.2%
viability, T/C [7]: 82.5%
viability, T/C [8]: 77.2%
viability, T/C (second compound 3.16 µM, first compound 0.000316 µM): 80.9%
viability, T/C (second compound 3.16 µM, first compound 0.001 µM): 83.6%
viability, T/C (second compound 3.16 µM, first compound 0.00316 µM): 91.1%
viability, T/C (second compound 3.16 µM, first compound 0.01 µM): 80.7%
viability, T/C [9]: 85.1%
viability, T/C [10]: 75.1%
viability, T/C (second compound 10 µM, first compound 0.000316 µM): 73.8%
viability, T/C (second compound 10 µM, first compound 0.001 µM): 67.5%
viability, T/C (second compound 10 µM, first compound 0.00316 µM): 72.1%
viability, T/C (second compound 10 µM, first compound 0.01 µM): 75.9%
viability, T/C [11]: 66%
viability, T/C [12]: 56.9%

IC50 (second compound 0.0316 µM): > 10000 nM
IC50 (second compound 0.1 µM): > 10000 nM
IC50 (second compound 0.316 µM): > 10000 nM
IC50 (second compound 1 µM): > 10000 nM
IC50 (second compound 3.16 µM): > 10000 nM
IC50 (second compound 10 µM): > 10000 nM
Compound: CNC(=O)c1ccc(N2C(=S)N(c3ccc(C#N)c(C(F)(F)F)c3)C(=O)C2(C)C)cc1F + Cc1nc(NC(=O)N2CCCC2C(N)=O)sc1-c1ccnc(C(C)(C)C(F)(F)F)c1
viability, T/C [1]: 87.5%
viability, T/C [2]: 108%
viability, T/C (second compound 0.0316 µM, first compound 0.316 µM): 102%
viability, T/C (second compound 0.0316 µM, first compound 1 µM): 108%
viability, T/C (second compound 0.0316 µM, first compound 3.16 µM): 94.1%
viability, T/C (second compound 0.0316 µM, first compound 10 µM): 121%
viability, T/C [3]: 85.6%
viability, T/C [4]: 87.5%
viability, T/C (second compound 0.1 µM, first compound 0.316 µM): 78.3%
viability, T/C (second compound 0.1 µM, first compound 1 µM): 90.6%
viability, T/C (second compound 0.1 µM, first compound 3.16 µM): 90.4%
viability, T/C (second compound 0.1 µM, first compound 10 µM): 114%
viability, T/C [5]: 76.1%
viability, T/C [6]: 86.1%
viability, T/C (second compound 0.316 µM, first compound 0.316 µM): 97.8%
viability, T/C (second compound 0.316 µM, first compound 1 µM): 94.4%
viability, T/C (second compound 0.316 µM, first compound 3.16 µM): 81.9%
viability, T/C (second compound 0.316 µM, first compound 10 µM): 96.2%
viability, T/C [7]: 79.1%
viability, T/C [8]: 78.9%
viability, T/C (second compound 1 µM, first compound 0.316 µM): 99%
viability, T/C (second compound 1 µM, first compound 1 µM): 96.7%
viability, T/C (second compound 1 µM, first compound 3.16 µM): 113%
viability, T/C (second compound 1 µM, first compound 10 µM): 90.9%
viability, T/C [9]: 81.3%
viability, T/C [10]: 92.2%
viability, T/C (second compound 3.16 µM, first compound 0.316 µM): 89.1%
viability, T/C (second compound 3.16 µM, first compound 1 µM): 84.7%
viability, T/C (second compound 3.16 µM, first compound 3.16 µM): 101%
viability, T/C (second compound 3.16 µM, first compound 10 µM): 86.4%
viability, T/C [11]: 81.5%
viability, T/C [12]: 74.8%
viability, T/C (second compound 10 µM, first compound 0.316 µM): 73%
viability, T/C (second compound 10 µM, first compound 1 µM): 73.9%
viability, T/C (second compound 10 µM, first compound 3.16 µM): 79.1%
viability, T/C (second compound 10 µM, first compound 10 µM): 65%

IC50 (second compound 0.0316 µM): > 3000 nM
IC50 (second compound 0.1 µM): > 3000 nM
IC50 (second compound 0.316 µM): > 3000 nM
IC50 (second compound 1 µM): > 3000 nM
IC50 (second compound 3.16 µM): 690 nM
IC50 (second compound 10 µM): 83.6 nM
Compound: Cn1cnc2c(F)c(Nc3ccc(Br)cc3Cl)c(C(=O)NOCCO)cc21 + Cc1nc(NC(=O)N2CCCC2C(N)=O)sc1-c1ccnc(C(C)(C)C(F)(F)F)c1
viability, T/C (second compound 0.0316 µM, first compound 0.00949 µM): 90.2%
viability, T/C (second compound 0.0316 µM, first compound 0.03 µM): 68.3%
viability, T/C (second compound 0.0316 µM, first compound 0.0949 µM): 78%
viability, T/C (second compound 0.0316 µM, first compound 0.3 µM): 91.2%
viability, T/C (second compound 0.0316 µM, first compound 0.949 µM): 89.4%
viability, T/C (second compound 0.0316 µM, first compound 3 µM): 76.4%
viability, T/C (second compound 0.1 µM, first compound 0.00949 µM): 82.8%
viability, T/C (second compound 0.1 µM, first compound 0.03 µM): 79.7%
viability, T/C (second compound 0.1 µM, first compound 0.0949 µM): 72.9%
viability, T/C (second compound 0.1 µM, first compound 0.3 µM): 78.5%
viability, T/C (second compound 0.1 µM, first compound 0.949 µM): 83.1%
viability, T/C (second compound 0.1 µM, first compound 3 µM): 77.4%
viability, T/C (second compound 0.316 µM, first compound 0.00949 µM): 86.7%
viability, T/C (second compound 0.316 µM, first compound 0.03 µM): 71.8%
viability, T/C (second compound 0.316 µM, first compound 0.0949 µM): 74.3%
viability, T/C (second compound 0.316 µM, first compound 0.3 µM): 70.5%
viability, T/C (second compound 0.316 µM, first compound 0.949 µM): 77.7%
viability, T/C (second compound 0.316 µM, first compound 3 µM): 66.7%
viability, T/C (second compound 1 µM, first compound 0.00949 µM): 90.3%
viability, T/C (second compound 1 µM, first compound 0.03 µM): 61.8%
viability, T/C (second compound 1 µM, first compound 0.0949 µM): 66.6%
viability, T/C (second compound 1 µM, first compound 0.3 µM): 62.7%
viability, T/C (second compound 1 µM, first compound 0.949 µM): 77.5%
viability, T/C (second compound 1 µM, first compound 3 µM): 51.5%
viability, T/C (second compound 3.16 µM, first compound 0.00949 µM): 82.2%
viability, T/C (second compound 3.16 µM, first compound 0.03 µM): 73.8%
viability, T/C (second compound 3.16 µM, first compound 0.0949 µM): 79.6%
viability, T/C (second compound 3.16 µM, first compound 0.3 µM): 63.8%
viability, T/C (second compound 3.16 µM, first compound 0.949 µM): 44.6%
viability, T/C (second compound 3.16 µM, first compound 3 µM): 22.2%
viability, T/C (second compound 10 µM, first compound 0.00949 µM): 63%
viability, T/C (second compound 10 µM, first compound 0.03 µM): 58.4%
viability, T/C (second compound 10 µM, first compound 0.0949 µM): 43.1%
viability, T/C (second compound 10 µM, first compound 0.3 µM): 44.5%
viability, T/C (second compound 10 µM, first compound 0.949 µM): 17.7%
viability, T/C (second compound 10 µM, first compound 3 µM): 1.93%
